Data reported in patent US12570666B2, “Furoindazole derivatives” (Bayer Aktiengesellschaft, priority 2019, dated 2026).

The compounds below were run against T1, human GPR84 receptor (Homo sapiens, UniProt Q9NQS5) (assay: cAMP HTRF assay for identification of cellular GPR84 antagonists). Conditions: CHO-K1 cells stably expressing human GPR84; Forskolin + agonist 6-OAU (EC80); average or median values.
T1 construct: frozen aliquots prepared by acCELLerate; host or cells: CHO-K1
Assay type: cell-based
Outline: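 Forskolin-stimulated CHO-K1 cells stably expressing human GPR84, agonist-suppressed cAMP measured by HTRF (665/620 ratio) after lysis. Compounds at 11 concentrations, 20 μM to 0.07 nM, duplicate; normalized to DMSO and no-agonist controls; IC50 by 4-parameter fit.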

T1 sequence (Q9NQS5 whole entry): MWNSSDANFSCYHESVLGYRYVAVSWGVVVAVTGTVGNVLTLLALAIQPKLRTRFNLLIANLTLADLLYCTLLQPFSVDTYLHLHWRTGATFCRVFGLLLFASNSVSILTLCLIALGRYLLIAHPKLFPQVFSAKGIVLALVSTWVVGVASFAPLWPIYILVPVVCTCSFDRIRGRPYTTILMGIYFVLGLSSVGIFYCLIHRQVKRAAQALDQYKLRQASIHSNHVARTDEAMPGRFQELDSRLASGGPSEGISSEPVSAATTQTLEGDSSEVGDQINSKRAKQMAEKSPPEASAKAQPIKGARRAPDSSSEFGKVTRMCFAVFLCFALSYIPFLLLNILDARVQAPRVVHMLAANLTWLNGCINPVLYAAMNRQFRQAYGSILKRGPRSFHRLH

SMILES	IC50 [nM]
Cc1c(C(=O)NCc2ccon2)oc2c1-c1nn(CC3COc4ncccc4O3)cc1CC2 (single isomer, unassigned) [Example 55-2]	43
Cc1c(C(=O)NCCN2CCN(C)CC2)oc2c1-c1nn(CC3COc4ncccc4O3)cc1CC2 (racemic) [Example 54, 2-[(2R/S)-2,3-dihydro[1,4]dioxino[2,3-b]pyridin-2-ylmethyl]-8-methyl-N-[2-(4-methylpiperazin-1-yl)ethyl]-4,5-dihydro-2H-furo[2,3-g]indazole-7-carboxamide]	550
Cc1c(C(=O)NCc2cc(CN3CCOCC3)on2)oc2c1-c1nn(Cc3ccccn3)cc1CC2 [Example 11, 8-methyl-N-{[5-(morpholin-4-ylmethyl)-1,2-oxazol-3-yl]methyl}-2-(pyridin-2-ylmethyl)-4,5-dihydro-2H-furo[2,3-g]indazole-7-carboxamide]	> 20000
Cc1c(C(=O)NC[C@@H]2COCCO2)oc2c1-c1nn(C(=O)N(C)C)cc1C1(CC1)C2 [Example 154]	270
Cc1c(C(=O)NC[C@@H]2COCCO2)oc2c1-c1nn(Cc3ccncc3)cc1CC2 [Example 47, N-[(2R)-1,4-dioxan-2-ylmethyl]-8-methyl-2-(pyridin-4-ylmethyl)-4,5-dihydro-2H-furo[2,3-g]indazole-7-carboxamide]	19
Cn1ccc(CNC(=O)c2oc3c(c2C(F)(F)F)-c2nn(Cc4ccccn4)cc2CC3)n1 [Example 117, N-[(1-methyl-1H-pyrazol-3-yl)methyl]-2-(pyridin-2-ylmethyl)-8-(trifluoromethyl)-4,5-dihydro-2H-furo[2,3-g]indazole-7-carboxamide]	55
Cc1c(C(=O)NC[C@@H]2CCCO2)oc2c1-c1nn(C[C@H]3CCOC3)cc1CC2 [Example 111, 8-methyl-N-[(2S)-tetrahydrofuran-2-ylmethyl]-2-[(3R)-tetrahydrofuran-3-ylmethyl]-4,5-dihydro-2H-furo[2,3-g]indazole-7-carboxamide]	140
Cc1c(C(=O)NC[C@@H]2COCCO2)oc2c1-c1nn(C[C@H]3COCCO3)cc1CC2 [Example 90, N-[(2R)-1,4-dioxan-2-ylmethyl]-2-[(2S)-1,4-dioxan-2-ylmethyl]-8-methyl-4,5-dihydro-2H-furo[2,3-g]indazole-7-carboxamide]	47
Cc1c(C(=O)NC[C@H]2COCCO2)oc2c1-c1nn(C[C@H]3COCCO3)cc1C1(CCC1)C2 [Example 144, N,2′-bis[(2S)-1,4-dioxan-2-ylmethyl]-8′-methyl-2′,5′-dihydrospiro[cyclobutane-1,4′-furo[2,3-g]indazole]-7′-carboxamide]	7390
Cc1conc1CNC(=O)c1oc2c(c1C)-c1nn(Cc3ccccn3)cc1CC2 [Example 26, 8-methyl-N-[(4-methyl-1,2-oxazol-3-yl)methyl]-2-(pyridin-2-ylmethyl)-4,5-dihydro-2H-furo[2,3-g]indazole-7-carboxamide]	1190
Cc1c(C(=O)NC[C@H]2CCCO2)oc2c1-c1nn(Cc3ccccn3)cc1CC2 [Example 3-1, 8-methyl-2-(pyridin-2-ylmethyl)-N-[(2R)-tetrahydrofuran-2-ylmethyl]-4,5-dihydro-2H-furo[2,3-g]indazole-7-carboxamide]	1160
Cc1c(C(=O)NC[C@H]2CCCO2)oc2c1-c1nn(C[C@@H]3COc4ncccc4O3)cc1CC2 (racemic) [Example 51, 2-[(2R/S)-2,3-dihydro[1,4]dioxino[2,3-b]pyridin-2-ylmethyl]-8-methyl-N-[(2R/S)-tetrahydrofuran-2-ylmethyl]-4,5-dihydro-2H-furo[2,3-g]indazole-7-carboxamide]	56
Cc1c(C(=O)NC[C@@H]2COCCO2)oc2c1-c1nn(C[C@@H]3CCOC3)cc1CC2 [Example 114, N-[(2R)-1,4-dioxan-2-ylmethyl]-8-methyl-2-[(3S)-tetrahydrofuran-3-ylmethyl]-4,5-dihydro-2H-furo[2,3-g]indazole-7-carboxamide]	200
Cc1c(C(=O)NCc2ccon2)oc2c1-c1nn(CC3COc4ncccc4O3)cc1CC2 (racemic) [Example 55, 2-[(2R/S)-2,3-dihydro[1,4]dioxino[2,3-b]pyridin-2-ylmethyl]-8-methyl-N-(1,2-oxazol-3-ylmethyl)-4,5-dihydro-2H-furo[2,3-g]indazole-7-carboxamide]	49

The remaining lines, values ahead:

IC50 [nM]	SMILES
8	CC(=O)N1CCC(Cn2cc3c(n2)-c2c(oc(C(=O)NC[C@@H]4COCCO4)c2C(F)(F)F)C[C@H]3C)CC1 (single isomer, unassigned) [Example 294, (4R or 4S)-2-[(1-acetylpiperidin-4-yl)methyl]-N-{[(2R)-1,4-dioxan-2-yl]methyl}-4-methyl-8-(trifluoromethyl)-4,5-dihydro-2H-furo[2,3-g]indazole-7-carboxamide]
21	CC1COC(CNC(=O)c2oc3c(c2C(F)(F)F)-c2nn(C[C@H]4COCCO4)cc2[C@H](C)C3)C1 (single isomer, unassigned) [Example 313, 2,5-anhydro-1,3,4-trideoxy-1-{[(4R or 4S)-2-{[(2S)-1,4-dioxan-2-yl]methyl}-4-methyl-8-(trifluoromethyl)-4,5-dihydro-2H-furo[2,3-g]indazole-7-carbonyl]amino}-4-methylpentitol]
16	O=C(NC[C@@H]1CCCO1)c1oc2c(c1C(F)(F)F)-c1nn(Cc3ccncc3)cc1C1(CCC1)C2 [Example 280, 2′-(Pyridin-4-ylmethyl)-N-[(2S)-tetrahydrofuran-2-ylmethyl]-8′-(trifluormethyl)-2′,5′-dihydrospiro[cyclobutan-1,4′-furo[2,3-g]indazol]-7′-carboxamide]
17	Cc1ccc(Cn2cc3c(n2)-c2c(oc(C(=O)NC[C@@H]4CCCO4)c2C)CC32CC2)cn1 [Example 211]
77	Cc1c(C(=O)NC[C@@H]2CCCO2)oc2c1-c1nn(Cc3ccncc3)cc1C1(CCC1)C2 [Example 202]
26	O=C(NC[C@@H]1CCCO1)c1oc2c(c1C(F)(F)F)-c1nn(C[C@H]3COCCO3)cc1C1(CCC1)C2 [Example 271, 2′-[(2S)-1,4-dioxan-2-ylmethyl]-N-[(2S)-tetrahydrofuran-2-ylmethyl]-8′-(trifluormethyl)-2′,5′-dihydrospiro[cyclobutan-1,4′-furo[2,3-g]indazol]-7′-carboxamide]
6	O=C(NC[C@@H]1COCCO1)c1oc2c(c1C(F)(F)F)-c1nn(Cc3ccncc3)cc1C1(CC1)C2 [Example 216, N-[(2R)-1,4-Dioxan-2-ylmethyl]-2′-(pyridin-4-ylmethyl)-8′-(trifluormethyl)-2′,5′-dihydrospiro[cyclopropan-1,4′-furo[2,3-g]indazol]-7′-carboxamide]
3	C[C@@H]1Cc2oc(C(=O)NC[C@@H]3CCCO3)c(C(F)(F)F)c2-c2nn(C[C@H]3COCCO3)cc21 (single isomer, unassigned) [Example 255-1, (4R or 4S)-2-{[(2S)-1,4-dioxan-2-yl]methyl}-4-methyl-N-{[(2S)-oxolan-2-yl]methyl}-8-(trifluoromethyl)-4,5-dihydro-2H-furo[2,3-g]indazole-7-carboxamide]
578	Cc1c(C(=O)NC[C@@H]2CCCO2)oc2c1-c1nn(C(C)c3ccccn3)cc1CC2 (mixture of isomers) [Example 317, 8-methyl-N-{[(2S)-oxolan-2-yl]methyl}-2-[(1±)-1-(pyridin-2-yl)ethyl]-4,5-dihydro-2H-furo[2,3-g]indazole-7-carboxamide]
